Data on four compounds can be found in patent US20230118911A1, “PROTEOLYSIS TARGETING CHIMERA (PROTAC) FOR DEGRADATION OF AURORA A-KINASE” (Julius-Maximilians-Universitaet Wuerzburg, priority 2020, published 2023).

In assay [1] the target is T1, Aurora-A (Homo sapiens, UniProt O14965).
T1 sequence (O14965 1-403): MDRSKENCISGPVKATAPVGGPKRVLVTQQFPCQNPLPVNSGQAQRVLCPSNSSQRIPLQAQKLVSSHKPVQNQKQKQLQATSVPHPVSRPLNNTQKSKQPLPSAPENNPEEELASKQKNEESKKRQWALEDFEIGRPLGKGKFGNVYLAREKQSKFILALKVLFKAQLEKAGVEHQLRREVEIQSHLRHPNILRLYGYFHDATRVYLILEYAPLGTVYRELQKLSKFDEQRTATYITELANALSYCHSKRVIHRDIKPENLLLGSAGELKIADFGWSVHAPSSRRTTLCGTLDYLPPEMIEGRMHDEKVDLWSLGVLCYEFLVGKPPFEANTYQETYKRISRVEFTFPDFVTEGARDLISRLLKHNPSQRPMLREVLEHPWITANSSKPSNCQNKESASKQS
The assay can be described thus: Immunoblot of endogenous Aurora-A in MV4-11 cells after a single dose of degrader. Format: cell-based. Details: resulting in degradation of endogenous Aurora-A; endogenous in cells; host or cells: MV4-11. On the procedure: (§1) Then, the cells were lysed in RIPA lysis buffer (50 mM HEPES pH 7.9, 140 mM NaCl, 1 mM EDTA, 1% Triton X-100, 0.1% SDS, 0.1% sodium deoxycholate) containing protease and phosphatase inhibitors (Sigma) and incubated for 20 minutes at 4° C. in head-over-tail. Lysates were cleared by centrifugation. Protein quantification was done using BCA assay and equal amounts of proteins were separated by BisTris-PAGE and transferred to PVDF membranes (Millipore). The membranes were blocked with 5% (w/v) nonfat dry milk dissolved in TBS-T (20 mM Tris/HCl, pH 7.5, 150 mM NaCl, and 0.1% (v/v) Tween 20) at RT for 1 hour and then incubated with the primary antibody overnight at 4° C. Visualization was done with HRP-labeled secondary antibodies and detected using Chemiluminescent HRP substrate (Millipore) in LAS3000 or LAS4000 Mini (Fuji). The signal was quantified using ImageJ (version 1.52q) or Image Studio Lite (LI-COR Biosciences, Version 5.2.5). […] Error bars represent standard deviations of four biological replicate experiments.

The test system of assay [2] is MV4-11 cells. The assay can be described thus: alamarBlue cell viability assay. It is filed as cell-based. Particulars: Homo sapiens, 1 μM (refreshed every 24 h), 72 hours, read-out: viable cells compared to control cells. The procedure:
The alamarBlue assay (Thermo Fisher Scientific) was performed according to manufacturer's instruction using HS Cell Viability Reagent. The fluorescence was measured in Tecan Infinite-200 using a fluorescence excitation wavelength of 550 and an emission of 600 nm.
In general terms: The colour change of resazurin is a common sign of viable cells or microbes.

Assay [3] relates to MV4-11 cells. The assay can be described thus: Annexin-PI FACS apoptosis assay in MV4-11 cells. It is filed as cell-based, human. The conditions noted are these: 0.5 μM, 72 hours.
Description: (§2) For Annexin-PI FACS, the medium in which the cells were cultured was combined with the cells.
(§3) The cells were washed once with ice-cold PBS, resuspended in 100 μl Annexin V Binding buffer (10 mM HEPES pH 7.4, 140 mM NaCl, 2.5 mM CaCl2)) with 2 μl of Annexin V/Pacific Blue dye and incubated for 15 minutes in the dark at room temperature. 400 μl Annexin V Binding buffer with propidium iodide (18.5 μM) was added and the samples were stored cold and in the dark until analysis.
The subject of a further assay is IMR5 cells. As to the kind of experiment: Annexin-PI FACS apoptosis assay in IMR5 cells with or without Aurora-A T217D expression. The conditions noted are these: 0.5 μM, 72 hours, doxycycline-induced Aurora-A T217D vs EtOH control.
The target of assay [4] is T1, Aurora-A. The assay can be described thus: Immunoblot of endogenous Aurora-A, MV4-11 cells treated with various concentrations for 6 hours. More on the design: resulting in degradation of endogenous Aurora-A; endogenous in cells; host or cells: MV4-11. It is filed as cell-based. The procedure:
as §1
Afterwards, cells were lysed in RIPA lysis buffer (50 mM HEPES pH 7.9, 140 mM NaCl, 1 mM EDTA, 1% Triton X-100, 0.1% SDS, 0.1% sodium deoxycholate) containing protease and phosphatase inhibitors (Sigma) and incubated for 20 minutes at 4° C. in head-over-tail. Further processing of resulting cell lysates and immunoblotting was performed as described above.
Background: A western blot detects proteins with antibodies after separation by electrophoresis.

Description for IMR5 cells: as §2, §3
Aurora-AT^217D is a functional mutant of Aurora-A. IMR5 cells express Aurora-A^T217D upon incubation with doxycycline (Dox) but not upon incubation with ethanol (control-EtOH).

As to `COc1cc(Nc2ncc3c(n2)-c2ccc(Cl)cc2C(c2c(F)cccc2OC)=NC3)ccc1C(=O)NCCOCCOCCC(=O)N[C@H](C(=O)N1C[C@H](O)C[C@H]1C(=O)NCc1ccc(-c2scnc2C)cc1)C(C)(C)C` [JB160, VHL-PEG2-alisertib], the Aurora-A steady-state levels entry at Aurora-A [1] (single dose, VHL-ligand-based degraders) is “neither of the VHL-ligand-based degraders JB160 and JB161 reduced Aurora-A steady-state levels”.
`COc1cc(Nc2ncc3c(n2)-c2ccc(Cl)cc2C(c2c(F)cccc2OC)=NC3)ccc1C(=O)NCCOCCOCCNC(=O)COc1cccc2c1C(=O)N(C1CCC(=O)NC1=O)C2=O` (stereo not drawn) [JB170, thalidomide-PEG2-alisertib]: the viability at 1 µM in the assay on MV4-11 cells [2] came out at 32%. This compound returned an Annexin-positive cells in the assay on MV4-11 cells [3] of 56%. Besides, the “effect of Aurora-A T217D expression on induced apoptosis” value with IMR5 cells is reported as “completely reverted the induction of apoptosis”. Besides, the Aurora-A levels entry on Aurora-A [4] (10 nM) is “significantly decreased”. Moreover, the Aurora-A degradation entry at Aurora-A [4] (100 nM and 1 μM) is recorded as “almost complete degradation”. The “Hook effect on Aurora-A depleting activity” value at Aurora-A [4] (high concentrations) is recorded as “reversal of the Aurora-A depleting activity was observed”.
For the compound `COc1cc(Nc2ncc3c(n2)-c2ccc(Cl)cc2C(c2c(F)cccc2OC)=NC3)ccc1C(=O)O` [alisertib, reference compound], the Aurora-A levels result on Aurora-A [4] (1 μM) is listed as “did not decrease Aurora-A levels, but induced a significant increase”.
As for thalidomide-PEG3-alisertib [JB158], the “reduction of Aurora-A protein level” value on Aurora-A [1] (single dose (0.1 μM, 1 μM), compared to control cells) is reported as 62%.
